Several values for one entry are separate records, joined by “and”; a condition that tells them apart may be missing. Equal values may be shown once. Read-outs that look alike come from different tables or passages of the source.
How the values were obtained:
[1] = Solubility of CBD and its analogs in Tocrisolve emulsion; assay type: physicochemical
Procedure: Formulations: 0.5% w/v CBD equivalent in Tocrisolve emulsion.
Tocrisolve composition: […] emulsion composed of a 1:4 ratio of soya oil/water that is emulsified with the block co-polymer Pluronic F68. Manufacturing process for the Tocrisolve emulsion: • Add accurately weighed amount of drug a glass vial. • Add required volume of Torcisolve blank emulsion to each vial • Vortex each vial for 5 minutes. • Sonicate each vial for 10 minutes. • Centrifuge each vial for 5 minutes at 9000 rpm at 25° C. • Collect the supernatant and analyze for CBD, CBD-Val Mono and CBD-Val-HS mono as applicable.

[2] = Bioavailability of CBD-Mono-VHS from a lipophilic suppository (Example 16); assay type: in vivo; set-up: unit not given here; conditions: rats, rectal 7.5 mg, Lipophilic (Wecobee M) Suppository; for Plasma Concentration of CBD-Mono-VHS: individual animals
Procedure: CBD-Mono-Val-Mono-HS was formulated in Wecobee M suppository base (a triglyceride lipophilic base) at 75 mg/mL of melted base. The study was carried out in a cannulated rat model. Three animals were administered 100 μl. each of the semisolid formulation for a rectal dose of 7.5 mg CBD-Mono-VHS. This is followed by collection of blood samples (250 μl.) at each data point (0, 0.25, 0.5, 1, 2, 4, 6, and 24 hr.). The blood was centrifuged and the plasma was used for LC-MS/MS analysis.

[3] = assay type: physicochemical; conditions: for Concentration of CBD-Mono-Val-Mono-HS: 37° C.
Procedure: The stability CBD and CBD analogs (CBD-Mono-VHS and CBD-Di-VHS) was evaluated under acidic and alkaline conditions to simulate exposure to gastric and intestinal fluids. The procedure is outlined as follows: • 1. Stock solution of 5 mg/mL CBD, CBD-Mono-Val-Mono HS, CBD-Di-Val-Di HS was prepared. • 2. Simulated Gastric Fluid (pH 1.2)+1% (SDS) was prepared and kept in 37° C. water bath. • 3. Physiological buffer (pH 7.4)+1% SDS was prepared and kept in 37° C. water bath. • 4. 100 μL of CBD, CBD-Mono-Val-Mono HS or CBD-Di-Val-Di-HS stock in acetonitrile (equivalent to 500 μg) was spiked into separate vials containing 5 ml of either pH 1.2 and 7.4. • 5. At each time point, 100 μL of the solution was withdrawn. • 6. 900 μL acetonitrile was added to each sample. • 7. All samples centrifuged at 4° C. and 13,000 rpm. • 8. 100 μL of the supernatant was withdrawn; to this 100 μL of supernatant, 900 μL of acetonitrile was added and placed in LC vials for analysis. Tables 9, 10 and 11, and FIGS. 7a, 7b, 18, and 19 show the results.

[4] = Plasma and organ concentrations of CBD and CBD-Mono-VHS after IP administration (Example 22); assay type: in vivo; conditions: mice
Procedure: CBD-Mono-VHS was administered intraperitoneally to mice at 2 doses (30 μg and 60 μg equivalent of CBD/mouse). Seventy minutes after dosing the animals (3 mice in each dose group), all animals were sacrificed. Blood, as well as organs (liver, spleen, kidney, and brain), were harvested for LC-MS/MS analysis of their content of both CBD and CBD-Mono-VHS.
Also shown is the concentration of CBD-Mono-VHS in the plasma 70 minutes after dosing.

[5] = IP CBD-Mono-VHS, High Dose (60 μg CBD/mouse), 70 Minutes, AVG.
[6] = IP CBD-Mono-VHS, High Dose (60 μg CBD/mouse), 70 Minutes, individual animals

C=C(C)C1CCC(C)=CC1c1c(O)cc(CCCCC)cc1OC(=O)[C@@H](NC(=O)CCC(=O)O)C(C)C (stereo partly shown) [CBD-Mono-VHS, CBD-Mono-Valinate-Mono-Hemisuccinate]
Maximum solubility achieved in Tocrisolve ([1]; as the substance itself): 1.18 % w/v | Maximum solubility achieved in Tocrisolve (In terms of CBD) ([1]; in terms of CBD): (0.61) % w/v | Plasma Concentration of CBD-Mono-VHS, Average ([2]; 0 hr): 0.0 | Plasma Concentration of CBD-Mono-VHS ([2]; 0 hr): 0.0 | Plasma Concentration of CBD-Mono-VHS, Average ([2]; 0.25 hr): 6.0 | Plasma Concentration of CBD-Mono-VHS ([2]; 0.25 hr): 7.1 (2×) and 3.9 | Plasma Concentration of CBD-Mono-VHS, Average ([2]; 0.5 hr): 11.1 | Plasma Concentration of CBD-Mono-VHS ([2]; 0.5 hr): 9.0 and 12.8 and 11.6 | Plasma Concentration of CBD-Mono-VHS, Average ([2]; 1 hr): 15.5 | Plasma Concentration of CBD-Mono-VHS ([2]; 1 hr): 14.1 and 13.8 and 18.5 | Plasma Concentration of CBD-Mono-VHS, Average ([2]; 2 hr): 20.6 | Plasma Concentration of CBD-Mono-VHS ([2]; 2 hr): 12.7 and 14.5 and 34.6 | Plasma Concentration of CBD-Mono-VHS, Average ([2]; 4 hr): 31.5 | Plasma Concentration of CBD-Mono-VHS ([2]; 4 hr): 22.0 and 27.5 and 45.1 | Plasma Concentration of CBD-Mono-VHS, Average ([2]; 6 hr): 39.8 | Plasma Concentration of CBD-Mono-VHS ([2]; 6 hr): 24.8 and 41.6 and 53.0 | Plasma Concentration of CBD-Mono-VHS, Average ([2]; 24 hr): 17.2 | Plasma Concentration of CBD-Mono-VHS ([2]; 24 hr): 7.3 and 44.3 | Concentration of CBD-Mono-Val-Mono-HS ([3]; Acid (pH 1.2), Time Point 0): 941 ng/mL | Concentration of CBD-Mono-Val-Mono-HS ([3]; Acid (pH 1.2), Time Point 15): 1380 ng/mL | Concentration of CBD-Mono-Val-Mono-HS ([3]; Acid (pH 1.2), Time Point 30): 1472 ng/mL | Concentration of CBD-Mono-Val-Mono-HS ([3]; Acid (pH 1.2), Time Point 60): 1579 ng/mL | Concentration of CBD-Mono-Val-Mono-HS ([3]; Acid (pH 1.2), Time Point 90): 1478 ng/mL | Concentration of CBD-Mono-Val-Mono-HS ([3]; Acid (pH 1.2), Time Point 120): 1519 ng/mL | Concentration of CBD-Mono-Val-Mono-HS ([3]; Base (pH 7.4), Time Point 0): 886 ng/mL | Concentration of CBD-Mono-Val-Mono-HS ([3]; Base (pH 7.4), Time Point 15): 1439 ng/mL | Concentration of CBD-Mono-Val-Mono-HS ([3]; Base (pH 7.4), Time Point 30): 1197 ng/mL | Concentration of CBD-Mono-Val-Mono-HS ([3]; Base (pH 7.4), Time Point 60): 1791 ng/mL | Concentration of CBD-Mono-Val-Mono-HS ([3]; Base (pH 7.4), Time Point 90): 1615 ng/mL | Concentration of CBD-Mono-Val-Mono-HS ([3]; Base (pH 7.4), Time Point 120): 1731 ng/mL | Stability under acidic (gastric juice) conditions, in words ([3]; pH 1.2, 37° C.): stable | Stability under physiologic / intestinal juice conditions, in words ([3]; pH 7.4, 37° C.): stable | Blood brain barrier passage, in words ([4]; IP 30 and 60 μg, 70 minutes): crosses the blood brain barrier | Organ concentrations after IP administration, in words ([4]; IP 30 and 60 μg, 70 minutes): high concentrations of the drug in all organs tested in a dose proportional manner | CBD Plasma Concentration, AVG. [4, 5]: 0.00 ng/mL | Total CBD, Brain, AVG. [4, 5]: 0.95 ng | Total CBD, Kidney, AVG. [4, 5]: 11.15 ng | Total CBD, Liver, AVG. [4, 5]: 295.11 ng | Total CBD, Spleen, AVG. [4, 5]: 64.42 ng | Total CBD, Total, AVG. ([4]; IP CBD-Mono-VHS, High Dose (60 μg CBD/mouse), 70 Minutes, AVG., sum of the columns): 371.63 ng | CBD Plasma Concentration [4, 6]: 0.00 ng/mL | Total CBD, Brain [4, 6]: 0.00 ng (2×) and 2.86 ng | Total CBD, Kidney [4, 6]: 18.50 ng and 14.96 ng and 0.00 ng

Reference: patent US11337950B2, “Biologically active cannabidiol analogs” (University of Mississippi, priority 2016, dated 2022)
